Results: patent US8158376B2, “Bisubstrate fluorescent probe binding to protein kinases” (University of Tartu, priority 2006, dated 2012)
Where “and” joins values, the source holds several entries; their conditions need not be identical. Equal values may be shown once. Starred links: 1 amine or outer side, 2 acyl side, 3 side chain; linkers in the order of their positions; H or OH if unused. Non-standard residues stand in square brackets, D forms with d. Residues, ends and D or L forms follow the SMILES beside them. *: point of attachment. Adenosine(5'-uronoyl) = Nc1ncnc2c1ncn2[C@@H]1O[C@H](C(=O)*)[C@@H](O)[C@H]1O; X1 = CN(C)c1ccc2c(-c3ccc(C(=O)*)cc3C(=O)[O-])c3ccc(=[N+](C)C)cc-3oc2c1; Isoquinoline5sulfonyl = O=S(=O)(c1cccc2cnccc12)*; X2 = O=C(CCCCCNCCN[*:1])[*:2]; X3 = CN(CCCCCC(=O)[*:2])[*:1]; 4Amb = NCc1ccc(C(=O)O)cc1; Ahx = NCCCCCC(=O)O; βAla = NCCC(=O)O

How the values were obtained:
[1] = target: Rho-associated kinase ROCK II (Homo sapiens, UniProt O75116); experiment: Titration of ARC-TAMRA with ROCK II, PHERAstar; type: binding; conditions: 2 nM and 20 nM ARC-TAMRA, read-out: Kd of ARC-TAMRA-ROCK II complex
Procedure: Experiments were performed in the wells of 384-well microtiter plates and with the measurements of fluorescence anisotropy with the platereader PHERAStar according to the protocols described in the Example 7.

cAPK Cα [2] = target: T1, cAPK Cα (Homo sapiens, UniProt P17612); experiment: Titration of ARC-TAMRA with cAPK Cα, fluorescence anisotropy, LS 55 spectrometer 0.5 ml cell; type: binding; set-up: purchased Biaffin AG; conditions: LS 55, 0.5 ml quartz cell, read-out: Kd of ARC-TAMRA complex with cAPK Cα
Procedure: The change in fluorescence anisotropy was plotted against the kinase concentration [cAPK Cα]. The data were fitted to the equation: […]
The binding of the fluorescent probe ARC-TAMRA to the kinase cAPK Cα (Biaffin) was studied at 10 nM or 2 nM ARC-TAMRA concentration (excitation at 557 nm, slitwidth 10 nm; emission at 585 nm, slitwidth 10 nm, detection of fluorescence polarization).
10 nM solution of ARC-TAMRA in 500 μl of buffer (50 mM HEPES, 200 mM NaCl, 0.5 g/l BSA, 5 mM DTT, 0.05% TWEEN 20, MilliQ water; pH 7.4) was titrated with the solution of kinase cAPK Cα (Biaffin). 1-3 μl quantities of various dilutions of kinase solution were added to 500 μl of 2.0 nM or 10.0 nM solution of ARC-TAMRA, and fluorescence anisotropy was measured after each addition of the kinase solution after 10 min delay time. The change in fluorescence anisotropy was plotted against the kinase concentration [cAPK Cα]. The data were fitted to the equation: […]

cAPK Cα [3] = target: T1, cAPK Cα; experiment: Titration of ARC-TAMRA with cAPK Cα, PHERAstar plate reader, 384-well; type: binding; set-up: purchased Biaffin AG; conditions: 2 nM and 20 nM ARC-TAMRA, 20 μl, 30° C., read-out: Kd of ARC-TAMRA complex with cAPK Cα
Procedure: Titrations of 2 nM and 20 nM ARC-TAMRA solutions were performed with cAPK C[…]. 2-fold serial dilutions of the kinase were used leading to concentrations of the kinase between 100 nM and 0.05 nM and 20 μl reaction volumes on a 384-well microtiter plate. […] Optical conditions for the measurements were set as the following: 540 nm excitation and 590 nm emission (20 nm bandpass filters). To find the value of Kd, titration curves were analyzed by a scientific curve-fitting program, e.g., GraphPad Prism 4.03, with nonlinear regression, using the function below:
[formula] where A is measured anisotropy, Af—anisotropy value for free ARC-Photo, Ab—anisotropy value for bound ARC-Photo, Lt—total concentration of ARC-Photo, Rt—nominal total concentration of enzyme, k—concentration of active enzyme divided by nominal concentration of enzyme, Kd—dissociation constant for ARC-Photo complex with enzyme. […] Determination of the Inhibition Constants (Ki)

cAPK Cα [4] = target: T1, cAPK Cα; experiment: Inhibition of TAMRA-kemptide phosphorylation catalyzed by cAPK Cα (TLC, fluorescence imaging); type: biochemical; set-up: purchased Biaffin AG
Procedure: (§1) The IC50 values of the inhibitors were measured as previously described. [Viht et al., Anal. Biochem. 340 (2005) 165] The inhibitors in various concentrations were incubated at 30° C. in Hepes buffer (50 mM, pH=7.5) containing cAPK Cα (Biaffin AG; about 1 nM), TAMRA-kemptide (10, 30 or 100 μM), ATP (100 μM or 1 mM), magnesium acetate (10 mM) and bovine serum albumin ([…] 0.2 mg/mL). ATP was added last to initiate the phosphorylation reaction. At fixed time points, the reaction was stopped by 20-fold dilution with 75 mM phosphoric acid and obtained solutions were analyzed by normal phase TLC (without fluorescence indicator, eluted with 1-butanol/pyridine/acetic acid/water, 15/10/12/12 by volume). The visualization and quantification of the fluorescent spots were carried out by fluorescence imaging. Data were processed with Graphpad Prism software (version 4, GraphPad).

cAPK Cα [5] = target: T1, cAPK Cα; experiment: Inhibition of cAPK Cα-catalysed phosphorylation of TAMRA-kemptide (TLC/fluorescence imaging); type: biochemical; set-up: purchased Biaffin AG; conditions: single site-targeted constituents of the conjugate
Procedure: as §1

cAPK Cα [6] = target: T1, cAPK Cα; experiment: Competition: displacement of ARC-TAMRA from complex with cAPK Cα, fluorescence anisotropy, LS 55; type: binding; set-up: purchased Biaffin AG
Procedure: A complex was created between 10 nM of ARC-TAMRA and 10 nM of cAPK Cα in 0.500 ml of buffer (50 mM HEPES, 200 mM NaCl, 0.5 g/l BSA, 5 mM DTT, 0.05% TWEEN 20, MilliQ water; pH 7.4). Different compounds were screened for binding to cAPK Cα against fixed concentrations of ARC-TAMRA and cAPK Cα (FIG. 4). 1-3 μl quantities of various dilutions of the solution of the inhibitor were added to 500 μl solution of ARC-TAMRA complex with the kinase and fluorescence anisotropy was measured after each addition of the […] after 10 min delay time.

cAPK Cα [7] = target: T1, cAPK Cα; experiment: High-throughput displacement of ARC-TAMRA from cAPK Cα, PHERAstar
Procedure: To determine the inhibition constant (Ki), 3-fold serial dilutions of a given inhibitor are performed analogously as for titration experiments. Before the measurement of fluorescence anisotropies the plate is rotated (400 rpm) for 10 minutes at 30° C.

MSK1 = MSK1 (Homo sapiens, UniProt O75582); experiment: Kinase selectivity panel, residual activity; type: biochemical; conditions: 1 μM compound, 20 μM ATP, 30° C.
Procedure: The assay of protein kinases was performed at 30° C. as described previously [Davies et al., Biochem. J. 351 (2000) 95; Murray et al., Biochem. J. 384 (2004) 477].

PKBb = PKBb (Homo sapiens, UniProt P31751); experiment: Kinase selectivity panel, residual activity; type: biochemical; conditions: 1 μM compound, 50 μM ATP, 30° C.
Procedure: (§2) The assay of protein kinases was performed at 30° C. as described previously [Davies et al., Biochem. J. 351 (2000) 95; Murray et al., Biochem. J. 384 (2004) 477]. The results of the testing are expressed as the % of residual activity of the kinase in the presence of the inhibitor at 1 micromolar concentration.

PKBΔph = PKBΔph (Homo sapiens, UniProt P31749); experiment: Kinase selectivity panel, residual activity; type: biochemical; conditions: 1 μM compound, 5 μM ATP, 30° C.
Procedure: as §2

PRK2 = PRK2 (Homo sapiens, UniProt Q16513); experiment: Kinase selectivity panel, residual activity; type: biochemical
Procedure: as §2

[8] = 100 μM ATP and 30 μM TAMRA-kemptide, read-out: IC50

Chain of MSK1 (O75582 whole entry): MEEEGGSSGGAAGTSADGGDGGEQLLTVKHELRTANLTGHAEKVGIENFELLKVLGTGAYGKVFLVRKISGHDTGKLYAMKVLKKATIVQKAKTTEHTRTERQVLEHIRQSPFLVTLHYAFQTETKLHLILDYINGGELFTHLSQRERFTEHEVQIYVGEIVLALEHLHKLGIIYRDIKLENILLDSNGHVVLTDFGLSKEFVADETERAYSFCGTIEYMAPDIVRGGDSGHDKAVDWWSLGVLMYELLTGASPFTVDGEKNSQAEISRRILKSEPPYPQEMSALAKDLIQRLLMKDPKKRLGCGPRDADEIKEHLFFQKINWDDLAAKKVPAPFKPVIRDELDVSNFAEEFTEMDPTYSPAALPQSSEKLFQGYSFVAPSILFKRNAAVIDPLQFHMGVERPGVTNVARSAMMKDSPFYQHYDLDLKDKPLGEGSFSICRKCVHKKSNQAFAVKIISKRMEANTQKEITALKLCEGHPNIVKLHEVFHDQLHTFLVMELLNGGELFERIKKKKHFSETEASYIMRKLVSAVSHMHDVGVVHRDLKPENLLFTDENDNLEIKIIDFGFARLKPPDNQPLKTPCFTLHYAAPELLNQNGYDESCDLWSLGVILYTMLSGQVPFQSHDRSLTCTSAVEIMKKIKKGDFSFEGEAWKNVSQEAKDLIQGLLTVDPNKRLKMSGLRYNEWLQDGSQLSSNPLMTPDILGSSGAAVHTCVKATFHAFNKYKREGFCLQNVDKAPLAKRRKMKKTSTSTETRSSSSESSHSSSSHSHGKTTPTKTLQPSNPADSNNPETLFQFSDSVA
Chain of Rho-associated kinase ROCK II (O75116 whole entry): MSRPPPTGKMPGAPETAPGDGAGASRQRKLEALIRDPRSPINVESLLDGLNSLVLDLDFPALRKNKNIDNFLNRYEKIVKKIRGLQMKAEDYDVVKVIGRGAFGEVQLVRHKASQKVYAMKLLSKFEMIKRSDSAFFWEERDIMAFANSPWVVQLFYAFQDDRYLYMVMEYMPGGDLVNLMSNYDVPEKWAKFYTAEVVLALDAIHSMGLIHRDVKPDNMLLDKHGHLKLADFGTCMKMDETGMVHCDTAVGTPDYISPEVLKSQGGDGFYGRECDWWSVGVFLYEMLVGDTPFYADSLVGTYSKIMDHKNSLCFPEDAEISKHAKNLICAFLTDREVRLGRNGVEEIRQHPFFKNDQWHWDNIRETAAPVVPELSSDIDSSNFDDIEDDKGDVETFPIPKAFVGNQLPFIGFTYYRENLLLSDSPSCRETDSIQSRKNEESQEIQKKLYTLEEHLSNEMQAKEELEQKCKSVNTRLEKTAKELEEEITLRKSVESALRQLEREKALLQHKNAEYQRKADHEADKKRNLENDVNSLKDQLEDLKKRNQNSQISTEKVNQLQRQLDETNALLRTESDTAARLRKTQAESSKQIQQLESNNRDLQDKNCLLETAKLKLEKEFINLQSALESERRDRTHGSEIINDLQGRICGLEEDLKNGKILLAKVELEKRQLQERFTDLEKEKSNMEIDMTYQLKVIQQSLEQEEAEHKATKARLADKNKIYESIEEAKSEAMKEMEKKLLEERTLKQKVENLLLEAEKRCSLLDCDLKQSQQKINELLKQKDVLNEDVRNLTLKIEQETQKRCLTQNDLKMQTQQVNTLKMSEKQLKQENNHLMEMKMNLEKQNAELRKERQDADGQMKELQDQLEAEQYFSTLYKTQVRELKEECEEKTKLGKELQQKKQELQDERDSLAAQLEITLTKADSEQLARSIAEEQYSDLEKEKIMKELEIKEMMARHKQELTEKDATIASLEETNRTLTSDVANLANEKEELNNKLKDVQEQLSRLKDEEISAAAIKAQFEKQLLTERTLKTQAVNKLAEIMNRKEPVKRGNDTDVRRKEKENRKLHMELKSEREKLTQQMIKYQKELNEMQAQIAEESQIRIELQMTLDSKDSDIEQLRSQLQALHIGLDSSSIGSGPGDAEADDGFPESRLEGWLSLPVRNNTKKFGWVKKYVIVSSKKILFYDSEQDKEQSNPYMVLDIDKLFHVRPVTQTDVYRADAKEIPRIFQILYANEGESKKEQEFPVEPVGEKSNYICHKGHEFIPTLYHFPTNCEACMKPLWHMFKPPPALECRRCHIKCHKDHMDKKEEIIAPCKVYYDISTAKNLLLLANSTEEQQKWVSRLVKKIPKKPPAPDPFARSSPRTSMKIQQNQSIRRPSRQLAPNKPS
Chain of PRK2 (Q16513 whole entry): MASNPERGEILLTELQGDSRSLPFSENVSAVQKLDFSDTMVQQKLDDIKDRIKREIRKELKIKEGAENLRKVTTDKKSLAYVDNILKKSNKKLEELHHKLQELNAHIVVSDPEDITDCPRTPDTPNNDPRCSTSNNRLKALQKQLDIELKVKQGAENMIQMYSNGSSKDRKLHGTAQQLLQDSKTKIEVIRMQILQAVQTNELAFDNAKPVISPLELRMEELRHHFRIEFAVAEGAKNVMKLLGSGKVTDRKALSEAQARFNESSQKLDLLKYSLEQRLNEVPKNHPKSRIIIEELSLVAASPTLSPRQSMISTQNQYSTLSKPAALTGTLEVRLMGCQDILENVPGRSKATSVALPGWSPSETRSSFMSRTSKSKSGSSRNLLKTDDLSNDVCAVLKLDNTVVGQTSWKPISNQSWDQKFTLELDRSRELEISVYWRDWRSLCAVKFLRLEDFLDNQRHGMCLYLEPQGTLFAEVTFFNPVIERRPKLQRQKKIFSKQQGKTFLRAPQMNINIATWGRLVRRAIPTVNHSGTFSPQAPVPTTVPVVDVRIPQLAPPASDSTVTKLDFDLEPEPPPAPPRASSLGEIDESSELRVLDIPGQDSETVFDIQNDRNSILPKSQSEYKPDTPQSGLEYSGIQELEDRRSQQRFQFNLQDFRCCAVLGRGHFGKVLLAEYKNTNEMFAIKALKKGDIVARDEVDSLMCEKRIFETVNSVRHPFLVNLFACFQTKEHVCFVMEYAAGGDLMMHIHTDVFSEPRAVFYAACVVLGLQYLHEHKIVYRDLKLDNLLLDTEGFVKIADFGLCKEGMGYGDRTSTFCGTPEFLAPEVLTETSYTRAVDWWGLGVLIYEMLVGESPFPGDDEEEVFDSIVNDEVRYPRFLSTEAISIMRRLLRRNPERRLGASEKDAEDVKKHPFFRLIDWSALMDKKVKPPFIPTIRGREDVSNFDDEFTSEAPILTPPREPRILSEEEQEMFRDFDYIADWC
Chain of PKBΔph (P31749 whole entry, stated change not applied): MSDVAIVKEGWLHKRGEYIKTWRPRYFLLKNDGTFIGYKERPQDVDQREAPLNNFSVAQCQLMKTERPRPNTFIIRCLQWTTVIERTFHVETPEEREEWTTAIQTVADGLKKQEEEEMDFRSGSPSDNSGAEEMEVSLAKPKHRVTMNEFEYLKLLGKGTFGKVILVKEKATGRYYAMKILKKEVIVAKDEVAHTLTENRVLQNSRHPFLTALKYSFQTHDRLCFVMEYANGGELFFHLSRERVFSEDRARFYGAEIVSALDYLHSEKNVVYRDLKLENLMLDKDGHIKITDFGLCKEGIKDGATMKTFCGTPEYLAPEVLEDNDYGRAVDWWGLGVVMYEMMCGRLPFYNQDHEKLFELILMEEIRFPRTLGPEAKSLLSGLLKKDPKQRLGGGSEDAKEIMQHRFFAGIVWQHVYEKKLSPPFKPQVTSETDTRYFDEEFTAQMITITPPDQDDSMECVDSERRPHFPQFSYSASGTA
Chain of PKBb (P31751 whole entry): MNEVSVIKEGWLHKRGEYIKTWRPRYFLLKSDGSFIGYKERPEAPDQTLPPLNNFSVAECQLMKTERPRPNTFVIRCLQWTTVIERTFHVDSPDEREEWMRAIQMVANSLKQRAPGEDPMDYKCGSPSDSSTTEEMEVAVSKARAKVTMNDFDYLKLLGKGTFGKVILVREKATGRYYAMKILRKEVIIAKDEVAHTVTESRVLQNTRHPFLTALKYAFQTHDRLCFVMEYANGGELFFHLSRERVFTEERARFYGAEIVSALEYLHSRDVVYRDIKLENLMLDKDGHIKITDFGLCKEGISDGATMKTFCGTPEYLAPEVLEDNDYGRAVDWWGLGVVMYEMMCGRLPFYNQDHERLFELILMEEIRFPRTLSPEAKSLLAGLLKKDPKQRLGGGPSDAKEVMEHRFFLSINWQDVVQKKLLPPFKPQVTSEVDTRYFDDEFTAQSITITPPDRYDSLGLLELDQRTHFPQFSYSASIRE

CN(C)c1ccc2c(-c3ccc(C(=O)NCCCC[C@@H](NC(=O)[C@@H](CCCNC(=N)N)NC(=O)[C@@H](CCCNC(=N)N)NC(=O)[C@@H](CCCNC(=N)N)NC(=O)[C@@H](CCCNC(=N)N)NC(=O)[C@@H](CCCNC(=N)N)NC(=O)[C@@H](CCCNC(=N)N)NC(=O)CCCCCNC(=O)[C@H]4O[C@@H](n5cnc6c(N)ncnc65)[C@H](O)[C@@H]4O)C(N)=O)cc3C(=O)[O-])c3ccc(=[N+](C)C)cc-3oc2c1 [ARC-TAMRA, AdcAhx(D-Arg)6-D-Lys(5-TAMRA)-C(O)NH2] ({Adenosine(5'-uronoyl)-Ahx}-[dR][dR][dR][dR][dR][dR][dK](X1)-NH2)
Kd [1]: 0.004 µM | Kd (cAPK Cα [2]; 2 nM ARC-TAMRA): 0.0011 µM | Kd (cAPK Cα [2]; 10 nM ARC-TAMRA): 0.001 µM and 0.00094 µM | Kd (cAPK Cα [3]): 0.0004 µM | IC50 (cAPK Cα [4]; read-out: IC50 of inhibition towards cAPK): 0.0062 µM

Nc1ncnc2c1ncn2[C@@H]1O[C@H](CO)[C@@H](O)[C@H]1O [Ado, adenosine, reference compound]
IC50 (cAPK Cα [4]; [8]): 350 ± 40 µM

Nc1ncnc2c1ncn2[C@@H]1O[C@H](CO)[C@@H](O)[C@H]1O [Ado, adenosine]
inhibitory potency (cAPK Cα [5]): submillimolar

N=C(N)NCCC[C@H](NC(=O)[C@H](CCCNC(=N)N)NC(=O)[C@H](CCCNC(=N)N)NC(=O)[C@H](CCCNC(=N)N)NC(=O)CCCCCNC(=O)[C@H]1O[C@@H](n2cnc3c(N)ncnc32)[C@H](O)[C@@H]1O)C(N)=O [Compound 2] ({Adenosine(5'-uronoyl)-Ahx}-RRRR-NH2)
IC50 (cAPK Cα [4]; [8]): 2 ± 0.3 µM

N=C(N)NCCC[C@H](NC(=O)[C@H](CCCNC(=N)N)NC(=O)[C@H](CCCNC(=N)N)NC(=O)[C@H](CCCNC(=N)N)NC(=O)[C@H](CCCNC(=N)N)NC(=O)[C@H](CCCNC(=N)N)NC(=O)CCCCCNC(=O)[C@H]1O[C@@H](n2cnc3c(N)ncnc32)[C@H](O)[C@@H]1O)C(N)=O [Compound 3, AdcAhx(L-Arg)6-NH2]
IC50 (cAPK Cα [6]; 10 nM ARC-TAMRA, 10 nM cAPK Cα): 1.3 µM | Ki (cAPK Cα [6]; read-out: Ki (competitive binding)): 0.11 µM | Ki (cAPK Cα [7]): 0.021 µM

N=C(N)NCCC[C@@H](NC(=O)[C@@H](CCCNC(=N)N)NC(=O)[C@@H](CCCNC(=N)N)NC(=O)[C@@H](CCCNC(=N)N)NC(=O)CCCCCNC(=O)[C@H]1O[C@@H](n2cnc3c(N)ncnc32)[C@H](O)[C@@H]1O)C(N)=O [Compound 4] ({Adenosine(5'-uronoyl)-Ahx}-[dR][dR][dR][dR]-NH2)
IC50 (cAPK Cα [4]; [8]): 0.33 ± 0.03 µM

CN(CCCCCC(=O)N[C@@H](CCCNC(=N)N)C(=O)N[C@@H](CCCNC(=N)N)C(=O)N[C@@H](CCCNC(=N)N)C(=O)N[C@@H](CCCNC(=N)N)C(N)=O)C(=O)[C@H]1O[C@@H](n2cnc3c(N)ncnc32)[C@H](O)[C@@H]1O [Compound 6] ({Adenosine(5'-uronoyl)}-[X3]RRRR-NH2)
IC50 (cAPK Cα [4]; [8]): 2.6 ± 0.6 µM

N=C(N)NCCC[C@H](NC(=O)[C@H](CCCNC(=N)N)NC(=O)[C@H](CCCNC(=N)N)NC(=O)[C@H](CCCNC(=N)N)NC(=O)c1ccc(CNC(=O)[C@H]2O[C@@H](n3cnc4c(N)ncnc43)[C@H](O)[C@@H]2O)cc1)C(N)=O [Compound 7] ({Adenosine(5'-uronoyl)-4Amb}-RRRR-NH2)
IC50 (cAPK Cα [4]; [8]): 23 ± 4 µM

N=C(N)NCCC[C@H](NC(=O)[C@H](CCCNC(=N)N)NC(=O)[C@H](CCCNC(=N)N)NC(=O)[C@H](CCCNC(=N)N)NC(=O)CCNC(=O)[C@H](Cc1ccccc1)NC(=O)[C@H]1O[C@@H](n2cnc3c(N)ncnc32)[C@H](O)[C@@H]1O)C(N)=O [Compound 8] ({Adenosine(5'-uronoyl)}-F[βAla]RRRR-NH2)
IC50 (cAPK Cα [4]; [8]): 3.7 ± 0.3 µM

N=C(N)NCCC[C@H](NC(=O)[C@H](CCCNC(=N)N)NC(=O)[C@H](CCCNC(=N)N)NC(=O)[C@H](CCCNC(=N)N)NC(=O)CCCCCNCCNS(=O)(=O)c1cccc2cnccc12)C(N)=O [Compound 25] (Isoquinoline5sulfonyl-[X2]RRRR-NH2)
IC50 (cAPK Cα [4]; second value in parentheses, condition not stated in table (method: ATP 100 μM or 1 mM), read-out: IC50 (μM), value in parentheses (converted)): 0.22 µM

N=C(N)NCCC[C@@H](NC(=O)[C@@H](CCCNC(=N)N)NC(=O)[C@@H](CCCNC(=N)N)NC(=O)[C@@H](CCCNC(=N)N)NC(=O)[C@@H](CCCNC(=N)N)NC(=O)[C@@H](CCCNC(=N)N)NC(=O)CCCCCNCCNS(=O)(=O)c1cccc2cnccc12)C(N)=O [Compound 26, H9-(CH2)5C(O)(D-Arg)6-NH2]
remaining activity at 1 µM (MSK1): ≤ 3% | remaining activity at 1 µM (PKBb): ≤ 3% | residual activity (PKBΔph): ≤ 3% | remaining activity at 1 µM (PRK2): ≤ 3%

CC(=O)N[C@H](CCCNC(=N)N)C(=O)N[C@H](CCCNC(=N)N)C(=O)N[C@H](CCCNC(=N)N)C(=O)N[C@H](CCCNC(=N)N)C(=O)N[C@H](CCCNC(=N)N)C(=O)N[C@H](CCCNC(=N)N)C(=O)N[C@H](CCCCN)C(N)=O [Compound 27, Ac-(D-Arg)6-D-Lys-NH2] (Ac-[dR][dR][dR][dR][dR][dR][dK]-NH2)
IC50 (cAPK Cα [4]; [8]): ~3000 µM

NCCNS(=O)(=O)c1cccc2cnccc12 [Compound H9, 5-isoquinolinesulfonyl ethylenediamine, reference compound]
IC50 (cAPK Cα [4]; [8]): 3.7 ± 0.3 µM

RIIa: regulatory subunit of cAMP-dependent protein kinase RIIα, substrate protein-competitive inhibitor
Ki (cAPK Cα [7]; read-out: Ki (displacement of ARC-TAMRA), 2 nM ARC-TAMRA, 3 nM cAPK Cα, PHERAstar, Kd 0.4 nM used): 0.0005 µM
